Test results as given in patent US11655235B2, “Pyrrolidine and piperidine compounds” (YUHAN CORPORATION, priority 2019, dated 2023).

Assays:
Format in all cases: biochemical
DPP4 = DPP4 (Homo sapiens, UniProt P27487); assay: DPP4 inhibition, fluorogenic substrate H-Gly-Pro-AMC; set-up: purchased R&D Systems; details: recombinant human DPP4
recombinant human DPP7 = target: T1, recombinant human DPP7 (Homo sapiens, UniProt Q9UHL4); assay: DPP7 inhibition, fluorogenic substrate Lys-Pro-AMC; details: recombinant human DPP7
T1 construct: purchased R&D Systems
Description: The compounds according to the present technology were evaluated in terms of the inhibitory effect on the activity of dipeptidyl peptidases including FAP by using a substrate producing fluorescent substances upon enzymatic decomposition. The test was conducted at 25° C. to get a final reaction volume of 100 μL in a 96 black well plate. […] Briefly, the test compounds were dissolved in dimethyl sulfoxide (DMSO) at a concentration of 20 mM and then subjected to serial dilution, thereby creating an 8 point curve. As for the control group, a 6 point curve created by serial dilution of Talabostat in the same buffer solution was used. Fluorescence intensity was measured using a microplate reader (Flexstation3, Molecular Devices) under the wavelength condition exciting at 380 nm and reading the emission at 460 nm. The inhibitory effect of the test compounds was measured as a decrease (%) in the signal rate as compared to the control group without any inhibitor. Data was fixed to a logistic model with four variables and IC50 value was calculated using GraphPad Prism program. As for recombinant human DPP4 (R&D Systems), 25 mM tris (pH 8.0) buffer as a buffer solution and H-Gly-Pro-AMC (Bachem) as a substrate were used. As for recombinant human DPP7 (R&D Systems), 25 mM MES (pH 6.0) buffer as a buffer solution and Lys-Pro-AMC (Bachem) as a substrate were used. As for recombinant human DPP8 (PBS Bioscience), as a buffer solution, a 10 mM tris (pH 7.4) buffer comprising 10 mM of magnesium chloride and 0.05% of Tween 20, and Z-Ala-Pro-AMC (BPS Bioscience) as a substrate were used. As for recombinant human DPP9 (R&D Systems), a 25 mM tris (pH 8.0) buffer as a buffer solution and H-Gly-Pro-AMC (Bachem) as a substrate were used. As for recombinant human PREP (R&D System), as a buffer solution, a 25 mM tris (pH 7.5) buffer comprising 250 mM sodium chloride and 2.5 mM DTT (Dithiolthreitol), and Z-Gly-Pro-AMC (Bachem) as a substrate were used. The evaluation was made by using 10 ng of DPP4, PDD7, and PREP, 20 ng of DPP8, and 50 ng of DPP9 based on the final reaction. In the evaluation of DPP4, the test compounds were subjected to serial dilution in a buffer under the condition containing up to 0.1% of DMSO. In the evaluation of DPP7, DPP8, DPP9, and PREP, the test compounds were subjected to serial dilution in each buffer under the condition containing up to 0.5% of DMSO.

Recombinant human FAP = target: T2, Recombinant human FAP (Homo sapiens, UniProt Q12884); assay: FAP FRET assay, FGF21-sequence FRET peptide substrate; details: FRET peptide with human FGF21 sequence, 6 μM, 37° C.
T2 construct: purchased R&D systems
T2 sequence (Q12884 1-760): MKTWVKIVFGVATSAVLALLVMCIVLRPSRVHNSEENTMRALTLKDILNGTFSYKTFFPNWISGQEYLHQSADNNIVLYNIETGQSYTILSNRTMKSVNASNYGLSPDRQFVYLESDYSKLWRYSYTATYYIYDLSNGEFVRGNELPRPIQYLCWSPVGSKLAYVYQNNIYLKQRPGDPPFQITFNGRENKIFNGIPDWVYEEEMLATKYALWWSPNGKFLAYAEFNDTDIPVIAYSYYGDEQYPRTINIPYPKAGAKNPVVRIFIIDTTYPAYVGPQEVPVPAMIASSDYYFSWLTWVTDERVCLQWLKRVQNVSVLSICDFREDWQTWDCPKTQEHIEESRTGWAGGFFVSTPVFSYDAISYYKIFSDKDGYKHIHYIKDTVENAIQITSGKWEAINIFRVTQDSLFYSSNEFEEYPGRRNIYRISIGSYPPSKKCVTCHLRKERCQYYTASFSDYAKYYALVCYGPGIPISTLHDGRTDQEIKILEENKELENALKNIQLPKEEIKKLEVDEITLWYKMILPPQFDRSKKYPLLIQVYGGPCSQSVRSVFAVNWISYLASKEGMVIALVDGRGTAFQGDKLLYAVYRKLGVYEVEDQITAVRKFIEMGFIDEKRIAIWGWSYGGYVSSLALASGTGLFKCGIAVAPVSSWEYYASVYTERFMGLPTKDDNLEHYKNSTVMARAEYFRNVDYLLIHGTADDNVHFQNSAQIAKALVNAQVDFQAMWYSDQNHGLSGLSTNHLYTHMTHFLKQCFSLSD
Procedure, shortened: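 FRET peptide bearing human FGF21 sequence (6 μM final) cleaved by 10 ng recombinant human FAP at 37° C in HEPES pH 7.2 buffer with NaCl, BSA and EDTA, DMSO up to 0.1%. Signal-rate decrease versus uninhibited control fitted to a four-variable logistic model for IC50.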

DPP4, sequence (P27487 whole entry): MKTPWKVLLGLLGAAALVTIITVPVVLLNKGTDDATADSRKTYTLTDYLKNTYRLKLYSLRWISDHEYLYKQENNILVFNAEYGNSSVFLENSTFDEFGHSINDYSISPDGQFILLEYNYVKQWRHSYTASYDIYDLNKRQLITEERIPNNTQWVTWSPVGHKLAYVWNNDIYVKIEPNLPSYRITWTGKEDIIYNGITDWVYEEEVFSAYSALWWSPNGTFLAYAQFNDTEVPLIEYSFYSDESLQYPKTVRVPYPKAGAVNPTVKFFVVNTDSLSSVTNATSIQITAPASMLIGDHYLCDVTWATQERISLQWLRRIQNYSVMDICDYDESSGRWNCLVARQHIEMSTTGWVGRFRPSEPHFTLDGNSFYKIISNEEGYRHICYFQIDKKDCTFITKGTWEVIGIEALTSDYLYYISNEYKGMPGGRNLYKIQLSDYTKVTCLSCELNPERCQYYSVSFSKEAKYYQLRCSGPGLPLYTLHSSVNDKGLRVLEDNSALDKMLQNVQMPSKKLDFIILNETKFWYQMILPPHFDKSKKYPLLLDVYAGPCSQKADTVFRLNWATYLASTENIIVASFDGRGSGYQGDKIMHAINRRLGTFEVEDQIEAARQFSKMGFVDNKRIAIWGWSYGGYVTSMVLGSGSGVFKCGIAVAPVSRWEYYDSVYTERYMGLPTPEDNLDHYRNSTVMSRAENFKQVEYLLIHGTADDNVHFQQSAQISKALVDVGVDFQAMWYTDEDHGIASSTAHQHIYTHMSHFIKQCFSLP

Structure (SMILES): N#C[C@@H]1CCCN1C(=O)CN1CCC(Oc2ccc(Cl)c3ncccc23)CC1 [Example 431, (2S)-1-[2-[4-[(8-chloro-5-quinolyl)oxy]-1-piperidyl]acetyl]pyrrolidine-2-carbonitrile]
- IC50 (DPP4): 19.3 µM
- IC50 (recombinant human DPP7): 6.34 µM
- IC50 (Recombinant human FAP): 0.0122 µM

Structure (SMILES): N#C[C@@H]1CCCN1C(=O)CN1CC[C@H](Nc2ccc(C(=O)Nc3ccccc3)c3ncccc23)C1 [Example 287, N-phenyl-5-[[(3S)-1-[2-oxo-2-[(2S)-2-cyanopyrrolidin-1-yl]ethyl]pyrrolidin-3-yl]amino]quinoline-8-carboxamide]
- IC50 (DPP4): 7.58 µM
- IC50 (recombinant human DPP7): 0.904 µM
- IC50 (Recombinant human FAP): 0.0012 µM

Structure (SMILES): N#C[C@@H]1C[C@H](F)CN1C(=O)CN1CCC(Nc2cc(F)c3ncccc3c2)CC1 [Example 375, (2S,4S)-4-fluoro-1-[2-[4-[(8-fluoro-6-quinolyl)amino]-1-piperidyl]acetyl]pyrrolidine-2-carbonitrile]
- IC50 (DPP4): 6.96 µM
- IC50 (Recombinant human FAP): 0.0229 µM

Structure (SMILES): Cc1cc(N[C@@H]2CCN(CC(=O)N3CCC[C@H]3C#N)C2)cc2cccnc12 [Example 220, (2S)-1-[2-[(3R)-3-[(8-methyl-6-quinolyl)amino]pyrrolidin-1-yl]acetyl]pyrrolidine-2-carbonitrile]
- IC50 (DPP4): 13.2 µM
- IC50 (Recombinant human FAP): 0.0057 µM

Structure (SMILES): CN(c1cc(F)cc2ncccc12)[C@H]1CCN(CC(=O)N2C[C@@H](F)C[C@H]2C#N)C1 [Example 157, (2S,4S)-4-fluoro-1-(2-((S)-3-((7-fluoroquinolin-5-yl)(methyl)amino)pyrrolidin-1-yl)acetyl)pyrrolidine-2-carbonitrile]
- IC50 (DPP4): 2.16 µM
- IC50 (Recombinant human FAP): 0.0202 µM

Structure (SMILES): N#C[C@@H]1CCCN1C(=O)CN1CC[C@@H](Nc2ccnc3ccc(Cl)cc23)C1 [Example 226, (2S)-1-[2-[(3R)-3-[(6-chloro-4-quinolyl)amino]pyrrolidin-1-yl]acetyl]pyrrolidine-2-carbonitrile]
- IC50 (DPP4): 37.9 µM
- IC50 (Recombinant human FAP): 0.0048 µM

Structure (SMILES): COc1ccc2ncc(N(C)C3CCN(CC(=O)N4C[C@@H](F)C[C@H]4C#N)CC3)cc2c1 [Example 327, (2S,4S)-4-fluoro-1-(2-(4-((6-methoxyquinolin-3-yl)(methyl)amino)piperidin-1-yl)acetyl)pyrrolidine-2-carbonitrile]
- IC50 (DPP4): 31.5 µM
- IC50 (Recombinant human FAP): 0.0031 µM

Structure (SMILES): CC(=O)Nc1ccc(NC2CCN(CC(=O)N3CCC[C@H]3C#N)CC2)c2cccnc12 [Example 408, N-[5-[[1-[2-oxo-2-[(2S)-2-cyanopyrrolidin-1-yl]ethyl]-4-piperidyl]amino]-8-quinolyl]acetamide]
- IC50 (DPP4): 8.19 µM
- IC50 (Recombinant human FAP): 0.0128 µM

Structure (SMILES): Cc1ccc2nccc(N[C@@H]3CCN(CC(=O)N4CCC[C@H]4C#N)C3)c2c1 [Example 223, (2S)-1-[2-[(3R)-3-[(6-methyl-4-quinolyl)amino]pyrrolidin-1-yl]acetyl]pyrrolidine-2-carbonitrile]
- IC50 (DPP4): 92.5 µM
- IC50 (Recombinant human FAP): 0.0131 µM

Structure (SMILES): N#C[C@@H]1C[C@H](F)CN1C(=O)CN1CC[C@@H](Nc2ccnc3ccc(F)cc23)C1 [Example 191, (2S,4S)-4-fluoro-1-[2-[(3R)-3-[(6-fluoro-4-quinolyl)amino]pyrrolidin-1-yl]acetyl]pyrrolidine-2-carbonitrile]
- IC50 (DPP4): 3.22 µM
- IC50 (Recombinant human FAP): 0.0194 µM

Structure (SMILES): N#C[C@@H]1CCCN1C(=O)CN1CC[C@@H](Nc2cc(Cl)c3ncccc3c2)C1 [Example 222, (2S)-1-[2-[(3R)-3-[(8-chloro-6-quinolyl)amino]pyrrolidin-1-yl]acetyl]pyrrolidine-2-carbonitrile]
- IC50 (DPP4): 11.8 µM
- IC50 (Recombinant human FAP): 0.0021 µM

Structure (SMILES): COc1ccnc2ccc(N[C@@H]3CCN(CC(=O)N4CCC[C@H]4C#N)C3)cc12 [Example 219, (2S)-1-[2-[(3R)-3-[(4-methoxy-6-quinolyl)amino]pyrrolidin-1-yl]acetyl]pyrrolidine-2-carbonitrile]
- IC50 (DPP4): 13 µM
- IC50 (Recombinant human FAP): 0.0168 µM

Structure (SMILES): CN(C)C(=O)c1ccc(NC2CCN(CC(=O)N3C[C@@H](F)C[C@H]3C#N)CC2)c2cccnc12 [Example 391, N,N-dimethyl-5-[[1-[2-oxo-2-[(2S,4S)-2-cyano-4-fluoro-pyrrolidin-1-yl]ethyl]-4-piperidyl]amino]quinoline-8-carboxamide]
- IC50 (DPP4): 3.5 µM
- IC50 (Recombinant human FAP): 0.0275 µM

Structure (SMILES): Cc1ccc2ncc(NC3CCN(CC(=O)N4C[C@@H](F)C[C@H]4C#N)CC3)cc2c1 [Example 363, (2S,4S)-4-fluoro-1-[2-[4-[(6-methyl-3-quinolyl)amino]-1-piperidyl]acetyl]pyrrolidine-2-carbonitrile]
- IC50 (DPP4): ≥ 10 µM
- IC50 (Recombinant human FAP): 0.0306 µM

Structure (SMILES): CNC(=O)c1ccc(NC2CCN(CC(=O)N3CCC[C@H]3C#N)CC2)c2cccnc12 [Example 395, N-methyl-5-[[1-[2-oxo-2-[(2S)-2-cyanopyrrolidin-1-yl]ethyl]-4-piperidyl]amino]quinoline-8-carboxamide]
- IC50 (DPP4): 6.04 µM
- IC50 (Recombinant human FAP): 0.0186 µM

Structure (SMILES): COc1ccc2nccc(N[C@@H]3CCN(CC(=O)N4C[C@@H](F)C[C@H]4C#N)C3)c2c1 [Example 188, (2S,4S)-4-fluoro-1-[2-[(3R)-3-[(6-methoxy-4-quinolyl)amino]pyrrolidin-1-yl]acetyl]pyrrolidine-2-carbonitrile]
- IC50 (DPP4): 15.2 µM
- IC50 (Recombinant human FAP): 0.0215 µM

Structure (SMILES): COc1ccc2c(N[C@@H]3CCN(CC(=O)N4C[C@@H](F)C[C@H]4C#N)C3)ccnc2c1 [Example 193, (2S,4S)-4-fluoro-1-[2-[(3R)-3-[(7-methoxy-4-quinolyl)amino]pyrrolidin-1-yl]acetyl]pyrrolidine-2-carbonitrile]
- IC50 (DPP4): 9.09 µM
- IC50 (Recombinant human FAP): 0.0244 µM

Structure (SMILES): N#C[C@@H]1C[C@H](F)CN1C(=O)CN1CC[C@H](Nc2cnc3nc(Cl)ccc3c2)C1 [Example 273, (2S,4S)-4-fluoro-1-[2-[(3S)-3-[(7-chloro-1,8-naphthyridin-3-yl)amino]pyrrolidin-1-yl]acetyl]pyrrolidine-2-carbonitrile]
- IC50 (DPP4): 0.53 µM
- IC50 (Recombinant human FAP): 0.019 µM

Structure (SMILES): CN(C(=O)c1ccc(N[C@H]2CCN(CC(=O)N3CCC[C@H]3C#N)C2)c2cccnc12)c1ccccc1 [Example 289, N-methyl-N-phenyl-5-[[(3S)-1-[2-oxo-2-[(2S)-2-cyanopyrrolidin-1-yl]ethyl]pyrrolidin-3-yl]amino]quinoline-8-carboxamide]
- IC50 (DPP4): 14.2 µM
- IC50 (Recombinant human FAP): 0.0363 µM

Structure (SMILES): N#C[C@@H]1C[C@H](F)CN1C(=O)CN1CC[C@@H](Nc2ccnc3c(F)cccc23)C1 [Example 194, (2S,4S)-4-fluoro-1-[2-[(3R)-3-[(8-fluoro-4-quinolyl)amino]pyrrolidin-1-yl]acetyl]pyrrolidine-2-carbonitrile]
- IC50 (DPP4): 19.6 µM
- IC50 (Recombinant human FAP): 0.0109 µM

Structure (SMILES): COc1ccc2cc(N(C)C3CCN(CC(=O)N4C[C@@H](F)C[C@H]4C#N)CC3)cnc2c1 [Example 328, (2S,4S)-4-fluoro-1-(2-(4-((7-methoxyquinolin-3-yl)(methyl)amino)piperidin-1-yl)acetyl)pyrrolidine-2-carbonitrile]
- IC50 (DPP4): 21.4 µM
- IC50 (Recombinant human FAP): 0.006 µM
